13 molecules from ChEMBL document CHEMBL1201862, “PubChem BioAssay data set” (2004) can be followed below.

Common to all, as to experiment: NCI anticancer screen, dose series, 48 h
The subject of assay [1] is HL-60.
Assay [2] deals with SK-MEL-2.
For assay [3], the system named is T47D.
Assay [4] has as its system HCC 2998.
Assay [5] deals with SN12C.
Assay [6] has as its system SK-MEL-28.
Assay [7] deals with Hs-578T.
Assay [8] concerns DU-145.
The subject of assay [9] is PC-3.
Assay [10] relates to HT-29.
In assay [11] the test system is MCF7.
In assay [12] the test system is SK-MEL-5.
The test system of assay [13] is IGROV-1.
Assay [14] relates to OVCAR-3.
The subject of assay [15] is HOP-92.
Assay [16] concerns NCI/ADR-RES.
The test system of assay [17] is NCI-H460.
Assay [18] relates to DMS-114.
Assay [19] relates to DLD-1.

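Step 1: Grow cells in 96-well plates. Step 2: Expose to compound for 48 hours at 5 concentrations. Step 3: Interpolate endpoints linearly; if unreached, use highest concentration. GI50 marks 50% less growth.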 Activity calls are given as the source filed them. Cut-off read from the data, not from the text of the source: active = GI50 up to about 1.1 µM and inactive = higher.

`N#Cc1c2c(c(Nc3ccc(F)cc3)n3c1nc1ccccc13)CCCC2`: the GI50 in assay [1] is 9.93 µM (inactive); in [2], > 100 µM (inactive); in assay [3], 6.64 µM (inactive); in assay [4], > 100 µM (inactive); in assay [5], > 100 µM (inactive); in [6], > 100 µM (inactive). The GI50 is 36.9 µM (inactive) in [7]; > 48.5 µM (inactive) in assay [8]; 5.36 µM (inactive) in assay [9]; > 100 µM (inactive) in assay [10]; > 32.5 µM (inactive) in assay [11]; 23.8 µM (inactive) in assay [12]. In addition, the GI50 in assay [13] is > 59.3 µM (inactive); in [14] it was > 100 µM (inactive); in assay [15] it was 26.9 µM (inactive); in [16], > 100 µM (inactive); in [17] it was 23.1 µM (inactive).
For the molecule `N=C(N)N/N=C/c1c(-c2ccc(Cl)c([N+](=O)[O-])c2)nc2sc(Cl)cn12`, the GI50 in [1] was 3.45 µM (inactive); in assay [2], 1.69 µM (inactive); in [3], 1.23 µM (inactive); in assay [4], 3.27 µM (inactive); in assay [5] it was 2.32 µM (inactive); in [6] it was 1.94 µM (inactive). Also, the GI50 in assay [7] was 2.33 µM (inactive); in assay [8], 1.95 µM (inactive); in [9] it was 1.88 µM (inactive); in assay [10], 2.36 µM (inactive); in assay [11], 2.39 µM (inactive); in [12], 4.07 µM (inactive). Further, the GI50 is 1.65 µM (inactive) in [13]; 1.51 µM (inactive) in assay [14]; 1.67 µM (inactive) in assay [15]; 46 µM (inactive) in assay [16]; 2.7 µM (inactive) in assay [17].
In the case of `CC[C@@H]1ON(C)[C@H]2CN(C)C(=O)[C@@H]12`, the GI50 in assay [1], in assay [2], in [3], in assay [4], in assay [5] and in assay [6] was > 100 µM (inactive) throughout. In addition, the GI50 in assay [7], in assay [8], in [9], in assay [10], in [11] and in assay [12] was > 100 µM (inactive) throughout. In addition, the GI50 in assay [13], in [14], in [15], in assay [16] and in assay [17] was > 100 µM (inactive) each time.
Turning to `O=c1n(Cc2ccccc2)c2ccccc2n1CC1CS1` (configuration not stated), the GI50 in assay [1], in [2], in assay [4], in assay [5], in [6] and in [18] was > 100 µM (inactive) in each case. Moreover, the GI50 in assay [13], in assay [14] and in assay [15] was > 100 µM (inactive) each time.
On to `CC(=O)Nc1ccc(C(=O)N2N=C(C)/C(=C/c3cccc(O)c3)C2=O)cc1`, for which the GI50 in assay [2], in assay [4], in [5], in [6], in assay [10] and in assay [12] was > 100 µM (inactive) each time. Besides, the GI50 in assay [18], in [14], in assay [19] and in assay [17] was > 100 µM (inactive) each time.
Take `COc1cc2cc(C(=O)N3C[C@@H](CCl)c4c3cc(N)c3ccccc43)[nH]c2c(OC)c1OC`: the GI50 in assay [1] was 0.00318 µM (active); in assay [2], < 0.01 µM (active); in assay [3] it was 0.00104 µM (active); in [4] it was < 0.01 µM (active); in assay [5] it was 0.00914 µM (active); in [6], < 0.01 µM (active). Also, the GI50 is 0.00738 µM (active) in assay [7]; < 0.01 µM (active) in assay [8]; 0.00102 µM (active) in assay [9]; 0.0735 µM (active) in assay [10]; 0.00145 µM (active) in [11]; < 0.01 µM (active) in assay [12]. Besides, the GI50 in assay [13] was 0.00611 µM (active); in [14], 0.00385 µM (active); in assay [15], 0.0048 µM (active); in [16], 0.00332 µM (active); in [17], 0.00183 µM (active).
Regarding `O=C1/C(=C/c2ccc(Cl)cc2)Sc2scc(-c3cccc([N+](=O)[O-])c3)[n+]21`, the GI50 is 0.308 µM (active) in assay [1]; 12.9 µM (inactive) in [2]; 3.5 µM (inactive) in [3]; 2.8 µM (inactive) in assay [4]; 2.77 µM (inactive) in [5]; 2.81 µM (inactive) in assay [6]. For the same molecule, the GI50 is 5.48 µM (inactive) in [7]; 7.11 µM (inactive) in [8]; 7.5 µM (inactive) in [9]; 5.65 µM (inactive) in [10]; 3.91 µM (inactive) in [11]; 2.61 µM (inactive) in assay [12]. In addition, the GI50 in assay [13] is 2.96 µM (inactive); in [14] it was 8.09 µM (inactive); in assay [15], 2.17 µM (inactive); in [16], 2.37 µM (inactive); in [17], 4.53 µM (inactive).
In the case of `CC1(C)OCC=CCO1`, the GI50 is 71.4 µM (inactive) in assay [1]; > 100 µM (inactive) in assay [2]; > 100 µM (inactive) in [3]; > 100 µM (inactive) in assay [4]; > 100 µM (inactive) in assay [5]; > 100 µM (inactive) in [6]. Besides, the GI50 in assay [7] is > 100 µM (inactive); in assay [8], > 100 µM (inactive); in [9] it was > 100 µM (inactive); in assay [10], > 100 µM (inactive); in [11] it was 56 µM (inactive); in assay [12], > 100 µM (inactive). The GI50 was > 100 µM (inactive) in assay [13]; 59.7 µM (inactive) in assay [14]; > 100 µM (inactive) in assay [15]; > 100 µM (inactive) in [16]; > 100 µM (inactive) in [17].
In the case of `O=C1OCc2c1cc1cc3c(cc1c2-c1ccc2c(c1)OCO2)OCO3.O=C1OCc2cc3cc4c(cc3c(-c3ccc5c(c3)OCO5)c21)OCO4`, the GI50 is 34.8 µM (inactive) in assay [1]; 11.4 µM (inactive) in [2]; 24.5 µM (inactive) in [3]; 18.7 µM (inactive) in assay [4]; 15 µM (inactive) in [5]; 45.4 µM (inactive) in [6]. The GI50 in assay [7] was 14.5 µM (inactive); in [8], 11.3 µM (inactive); in assay [9] it was 8.38 µM (inactive); in assay [10] it was 7.23 µM (inactive); in assay [11] it was 15.4 µM (inactive); in assay [12] it was 4.7 µM (inactive). The GI50 in [13] was 8.55 µM (inactive); in assay [14], 4 µM (inactive); in assay [15], 13.8 µM (inactive); in assay [16] it was 4.68 µM (inactive); in assay [17], 5.79 µM (inactive).
On to `O=C1NCCCC12CCCNC2=O`, for which the GI50 in assay [1], in assay [4], in assay [5], in assay [6], in assay [10] and in assay [12] was > 100 µM (inactive) in each case. Also, the GI50 in assay [18], in assay [13], in [14] and in assay [17] was > 100 µM (inactive) in each case.
In the case of `CC(C)CCCC(C)[C@H]1CC[C@H]2[C@@H]3CC[C@H]4C[C@@H](CCC=C(c5cc(Cl)c(O)c(C(=O)O)c5)c5cc(Cl)c(O)c(C(=O)O)c5)CC[C@]4(C)[C@H]3CC[C@]12C` (some centres not stated), the GI50 in assay [1], in assay [2], in [3], in assay [4], in [5] and in assay [6] was > 50 µM (inactive) each time. For the same molecule, the GI50 in assay [7] is > 50 µM (inactive); in assay [8], > 50 µM (inactive); in [9], > 50 µM (inactive); in [10], > 50 µM (inactive); in assay [11] it was > 50 µM (inactive); in assay [12] it was 28.8 µM (inactive). Also, the GI50 in assay [13] was > 50 µM (inactive); in assay [14], > 50 µM (inactive); in [15] it was > 50 µM (inactive); in assay [16], > 50 µM (inactive); in [17], 25.4 µM (inactive).
Turning to `COC(=O)C1=CC2OC1(C)CCC2=O` (configuration not stated), the GI50 is 26.9 µM (inactive) in [1]; > 100 µM (inactive) in assay [2]; > 100 µM (inactive) in assay [4]; > 100 µM (inactive) in [5]; > 100 µM (inactive) in assay [6]; > 100 µM (inactive) in assay [10]. Further, the GI50 was > 100 µM (inactive) in [13], > 100 µM (inactive) in [14], 80.5 µM (inactive) in [19] and > 100 µM (inactive) in assay [17].
For the molecule `CN1CCC2(CC1)SC[C@H]1C(=O)N(c3ccc(Cl)cc3)C(=O)N12`, the GI50 in assay [1], in assay [2], in [3], in [4], in assay [5] and in assay [6] was > 100 µM (inactive) in each case. For the same molecule, the GI50 in [7], in assay [8], in [9], in assay [10], in assay [11] and in [12] was > 100 µM (inactive) each time. Besides, the GI50 in [13], in assay [14], in [15], in assay [16] and in [17] was > 100 µM (inactive) throughout.
